Experimental findings from patent publication US4593104A, “2-halo-N-(azole-1-yl-methyl)-substituted acetanilides” (BASF Aktiengesellschaft, priority 1976, dated 1986) are described below.

Common to all, as to assay: preemergence treatment in the greenhouse, % damage
What all share (details): 2.0 kg/ha

For assay [1], the system named is Alopec. myosur. Format: in vivo. The gist of the method: (§1)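 Preemergence: active sprayed onto the soil surface immediately after sowing; pots sprinkler-irrigated and covered with transparent hoods until plants rooted. Postemergence: unhooded plants sprayed at 3–10 cm. Both run 4–6 weeks in greenhouse; damage 0 = none, 100 = no emergence or total kill of visible parts.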

The test system of assay [2] is Bromus spp. In kind it is in vivo. The method in brief: as §1
The subject of assay [3] is Echin. c.g. In kind it is in vivo. The gist of the method: as §1
Assay [4] concerns Matric. spp. In kind it is in vivo. The gist of the method:
as §1

In assay [5] the test system is Setaria spp. Format: in vivo. The method in brief: as §1
Assay [6] deals with Zea mays. In kind it is in vivo. The gist of the method: as §1
For assay [7], the system named is Arach. hypog. Format: in vivo, Arachis hypogaea. An excerpt:
The vessels employed were plastic flowerpots having a volume of 300 cm^3; the substrate was a sandy loam containing about 1.5% humus. The seeds of the test plants (see Table 1) were sown shallow, and separated according to species. In the case of Cyperus esculentus, pregerminated tubers were planted. In the preemergence treatment, the active ingredients were then immediately applied to the surface of the soil. They were suspended or emulsified in water as the vehicle, and sprayed through atomizing nozzles. After the agents had been applied, the vessels were lightly sprinkler-irrigated to set germination and growth going, and to activate the chemical agents. The vessels were then covered with transparent plastic hoods until the plants had taken root. This cover ensured uniform germination of the test plants (to the extent that this was not impaired by the chemicals), and prevented readily volatile substances from evaporating.
For postemergence treatment, the plants were first grown to a height of from 3 to 10 cm, depending on their habit, before treated. Hoods were not placed on the pots. The experiments were set up in the greenhouse, hotter areas (25° to 40° C.) being preferred for heat-loving species, and 15° to 30° C. for plants from moderate climates. The experiments were carried out for from 4 to 6 weeks. During this period the plants were tended and their reaction to the various treatments was assessed. The following tables contain the substances investigated, the application rates in kg/ha of active ingredient, and the test plant species. Assessments were made on a 0 to 100 scale, 0 denoting no damage or normal emergence, and 100 denoting no emergence or complete destruction of at least the visible plant parts.

Regarding `Cc1cccc(C)c1N(Cn1ncnn1)C(=O)CCl`, the “% damage” value in assay [1] stood at 98%; in assay [2] it was 98%; in assay [3], 100%; in assay [4], 100%; in assay [5], 95%; in assay [6], 15%. For the same compound, in assay [7], the “% damage” value is 15%.
